Assays:
[1] = target: T1, Ku antigen (Ku70/Ku80 heterodimer) (Mus musculus, UniProt P23475+P27641); test: EMSA inhibition study: cold ODN vs [32P]-labeled ds-ISS-ODN binding to Ku (affinity column fraction 20)
T1 construct: from tissue; host or cells: mouse liver (BALB/c)
Experimental: Purification of the ISS binding protein was accomplished by sequential ion exchange, heparin and ISS-ODN affinity chromatography, as follows. Due to the relative small tissue weight per spleen, liver lysate was used after confirming its reactivity to in vivo ISS injection, as described above. Crude liver extracts from 220 mice (BALB/c, Jackson Lab., Bar Harbour, Me.) or 15 New Zealand White rabbits (Simunek, Vista, Calif.) were prepared in homogenization buffer (20 mM HEPES, pH 7.6, 250 mM KCl, 0.1 mM EDTA, 0.5 mM EGTA, 20% glycerol) with 250 mM KCl and protease and phosphatase inhibitors and then centrifuged at 100,000×g for 1.5 hours at 4° C. The supernatant (400 ml) was filtered and loaded onto a Porous 20 QE column (17 ml, Pharmacia). Two μl (10 μg) of each fraction were used in a gel retardation assay to identify the location of proteins containing DNA binding activity using [^32P]-labeled ds-ISS-ODN as a probe. Fractions containing ISS-ODN binding activity were pooled (450 ml), buffered exchanged to low salt (50 mM KCl) and loaded onto a Heparin column (2 ml). The active fractions were subsequently loaded onto a 2 ml ds-ISS-ODN affinity column [CNBr-activated Sepharose 4B (Pharmacia) coupled to 320 μg of ds-ISS-ODNs with the sequence 5′-[…]-3′; SEQ ID NO: 21]. The column was washed with 8 ml of homogenization buffer containing 50 mM KCl and the bound proteins were eluted with a 20 ml linear gradient of 50 mM to 1.55 M KCl. One-ml fractions were collected and 2 μl of each were used to test for DNA binding activity. The active fractions were concentrated, separated by SDS-PAGE and stained with Coomassie Blue. The appearance of two bands with estimated molecular weights of 70 KDa and 80 KDa correlated with the DNA binding activity. Sequence analysis (Harvard Microsequencing Facility) of peptides derived from the two bands identified Ku70 and Ku80, respectively.
Mouse liver extracts were purified through anion (QE), heparin and ISS-based affinity chromatography, as described above. Two μl of each fraction (10 μg) were incubated with [^32 P]-labeled ds-ISS-ODN at 4° C. for 30 minutes. The samples were separated on a 5% acrylamide gel and the protein-DNA complexes were detected by autoradiography. […] The active fractions were separated by sodium dodecyl sulfate-polyacrylamide gel electrophoresis (SDS-PAGE), stained with Coomassie blue and micro-sequenced.
To verify the binding specificity of the Ku protein to ISS-ODN, inhibition studies were performed using cold ss or ds ISS or mutated (M, i.e., control) ODNs. Ten μg of fraction 20 from the affinity column were incubated with [^32P]-labeled ISS-ODN in the presence of unlabeled (0.1, 0.2 and 0.4 μg, respectively) ss-ISS-ODN (lanes 3-5), ds-ISS-ODN (lanes 7-9), ss-M-ODN (lanes 11-13) or ds-M-ODN (lanes 15-17).

[2] = tested on: IκB kinase (IKK) complex; test: IKK kinase assay on IKK complex immunoprecipitated from treated BMDM (IκBα N-terminus substrate); type: cell-based, mice
Experimental: Kinase assays and immunoblotting were performed according to Li et al. ((1999) J. Exp. Med. 189:1839-1845). Briefly, BMDM were treated with ISS-ODN (5 μg/ml), M-ODN (5 μg/ml) on ps and po backbones as indicated, LPS-free bacterial DNA or methylated bacterial DNA (5 μg/ml), LPS-free calf thymus DNA (5 μg/ml), LPS (10 μg/ml) or TNFα (10 ng/ml) for the indicated time periods. Cell lysates were prepared and normalized by immunoblotting (IB) with anti-IKKα polyclonal antibodies (Santa Cruz, Santa Cruz Biotech Inc., Calif.), anti-IKKβ polyclonal antbodies (Santa Cruz) or anti-DNA-PKcs monoclonal antibodies (NeoMarker, Calif.). IκB kinase (IKK) complex or DNA-PK complex from 100 μg of the lysates were immunoprecipitated by anti-IKKα or by anti-DNA-PKcs antibodies. The kinase activities (KA) were determined by a kinase assay using the N-terminus of IκBα (for IKK) or the N-terminus of p53 (for DNA-PK) as a substrate as previously described. Wang et al. (1992) Proc. Natl. Acad. Sci. USA 89:4231-4235; Li et al.(1999), supra; and Hammarsten et al. (2000) J. Biol. Chem. 275:1541-1545.

[3] = tested on: NF-κB; test: NF-κB activation in treated BMDM (EMSA); type: cell-based, mice
Experimental: The ODNs (ps-ss) used include an ISS-ODN with an active CpG motif (AACGTT), a methylated ISS-ODN at the ^5C of the CpG dinucleotide (AA*CGTT) and various control ODNs. These ODNs were incubated at concentrations of 0, 0.1, 0.3, or 1 ng/reaction. The po-ISS-ODN was incubated at concentration of 20, 50 or 100 ng/reaction. The po-ds-ISS-ODN was incubated at concentration of 0, 0.5, 1, 2, 5 or 10 ng/reaction. The bacterial or calf thymus DNAs were each incubated at concentration of 1, 2 or 5 ng/reaction. Electrophoretic gel mobility shift assay (EMSA) was performed as previously described. Chu et al. (1999) Immunity 11:721-731; and Li et al., 1999, supra). In vitro IKK kinase assays were performed using purified IKK derived from Sf9 insect cell lysates as was previously described. Zandi et al. (1998) Science 281:1360-1363.

[4] = tested on: bone marrow derived macrophages (BMDM); settings: Martin-Orozco et al. (1999); cited from earlier work
[5] = IKKβ-/- Tnfr-/- BMDM (absence of IKKβ)

T1 sequence (P23475 2-608 limits assumed): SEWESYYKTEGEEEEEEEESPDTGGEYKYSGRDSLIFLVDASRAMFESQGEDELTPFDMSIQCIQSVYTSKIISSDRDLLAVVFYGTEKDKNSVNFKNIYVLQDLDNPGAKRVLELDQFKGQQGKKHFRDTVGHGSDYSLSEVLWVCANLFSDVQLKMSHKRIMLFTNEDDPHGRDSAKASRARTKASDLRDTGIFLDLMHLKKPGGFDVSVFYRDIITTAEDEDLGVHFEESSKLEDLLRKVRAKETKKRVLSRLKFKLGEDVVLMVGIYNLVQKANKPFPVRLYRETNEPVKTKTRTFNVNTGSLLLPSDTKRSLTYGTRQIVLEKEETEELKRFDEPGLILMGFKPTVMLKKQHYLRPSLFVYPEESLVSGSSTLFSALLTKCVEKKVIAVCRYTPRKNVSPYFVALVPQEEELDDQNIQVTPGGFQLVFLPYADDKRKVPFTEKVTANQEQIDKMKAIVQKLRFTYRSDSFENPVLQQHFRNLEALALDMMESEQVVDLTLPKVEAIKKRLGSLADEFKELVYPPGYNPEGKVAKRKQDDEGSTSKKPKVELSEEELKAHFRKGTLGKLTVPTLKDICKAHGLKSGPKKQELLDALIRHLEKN
T1 sequence (P27641 whole entry): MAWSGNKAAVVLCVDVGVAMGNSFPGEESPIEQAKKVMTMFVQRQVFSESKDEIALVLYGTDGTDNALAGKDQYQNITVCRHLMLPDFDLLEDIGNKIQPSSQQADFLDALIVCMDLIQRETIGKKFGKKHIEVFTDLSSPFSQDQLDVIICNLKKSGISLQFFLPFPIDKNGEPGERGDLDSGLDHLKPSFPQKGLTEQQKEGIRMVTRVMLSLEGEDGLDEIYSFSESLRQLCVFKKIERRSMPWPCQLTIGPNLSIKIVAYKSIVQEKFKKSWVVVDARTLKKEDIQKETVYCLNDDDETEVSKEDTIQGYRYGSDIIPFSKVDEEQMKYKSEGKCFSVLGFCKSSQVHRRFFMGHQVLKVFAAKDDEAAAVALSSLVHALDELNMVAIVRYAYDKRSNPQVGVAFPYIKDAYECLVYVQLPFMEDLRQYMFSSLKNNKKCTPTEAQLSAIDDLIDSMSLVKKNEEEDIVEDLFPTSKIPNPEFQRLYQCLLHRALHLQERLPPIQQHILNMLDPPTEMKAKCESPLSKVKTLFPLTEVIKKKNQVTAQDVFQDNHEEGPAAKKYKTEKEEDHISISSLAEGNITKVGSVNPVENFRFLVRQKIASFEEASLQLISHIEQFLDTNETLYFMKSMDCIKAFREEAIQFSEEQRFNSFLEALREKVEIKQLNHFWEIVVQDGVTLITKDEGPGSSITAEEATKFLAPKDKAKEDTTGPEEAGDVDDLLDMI

interaction of Ku with ODN [1]: specific interaction | IKK activation, wt vs ATM-deficient BMDM ([2]; ATM-deficient BMDM): no differences were observed | IKK activation ([2]; DNA-PKcs-/- BMDM as compared to wt): little increase in IKK activity | IKK activation [2, 5]: prevented | IKK activation ([2]; wt BMDM): robust IKK activation | duration of IKK activation ([2]; wt BMDM): about 4 hrs | time of maximal IKK activation post incubation ([2]; wt BMDM): 30 min | ISS-ODN concentration of optimal IKK activation ([2]; wt BMDM (FIG. 5B)): 0.65 µg/mL
Substance: 5′-TGACTGTGAACGTTCGAGATGA-3′ [ISS-ODN]
NF-κB activation, wt vs ATM-deficient BMDM ([3]; ATM-deficient BMDM): no differences were observed | NF-κB activation ([3]; DNA-PKcs-/- BMDM): impaired NF-κB activation | NF-κB activation [3, 5]: prevented | IL-6 and IL-12 secretion [4]: high levels
